Assay results taken from PMC5994430, “Mitochondrial Delivery of Phenol Substructure Triggers Mitochondrial Depolarization and Apoptosis of Cancer Cells” (Frontiers in Pharmacology, 2018).

Tests used:
[1] = system: CCD-18Co cells; test: Cell viability (neutral red), IC50; type: cell-based; details: Homo sapiens, CCD-18Co colon-derived normal fibroblasts, CompuSyn
Text: (§1) Human colon cancer HT29 cells, colon-derived normal fibroblast CCD-18Co cells, lung cancer A549 cells, normal human bronchial epithelial (immortalized with adenovirus 12-SV40 virus hybrid Ad12SV40) BEAS-2B cells, breast cancer MDA-MB-231 cells, normal breast epithelial MCF10A cells, human osteosarcoma U-2OS cells were purchased from ATCC (Manassas, VA, United States). Primary osteoblasts were generated as reported previously ([Buondonno et al., 2016]). HMM and HMC were primary cells stabilized in culture as described ([Aldieri et al., 2004]). The use of primary cells was approved by Ethical Committee of the San Luigi Gonzaga Hospital, Orbassano, (protocol #126/2016). All subjects gave written informed consent in accordance with the Declaration of Helsinki. Cells were maintained in medium supplemented with 10% v/v fetal bovine serum, 1% v/v penicillin-streptomycin, 1% v/v L-glutamine. Morphological analysis was performed with a bright field microscope (Leica Microsystems, Wetzlar, Germany). At least 5 fields/experimental condition were examined.
(§2) The extracellular release of LDH, considered an index of cell damage and necrosis, was measured spectrophotometrically, as reported ([Riganti et al., 2013b]). The extracellular medium was centrifuged at 12,000 × g for 15 min to pellet cellular debris, the cells were washed with fresh medium, detached with 0.01% trypsin/EDTA, re-suspended in 0.2 ml of 82.3 mM triethanolamine phosphate-HCl (pH 7.6), and sonicated on ice with two 10-sec bursts. LDH activity was measured in the extracellular medium and in the cell lysate: 50 μl of extracellular medium or 5 μl of cell lysate were incubated at 37°C with 5 mM NADH. The reaction was started by adding 20 mM pyruvic acid and was monitored for 6 min, measuring absorbance at 340 nm using a Synergy HT Multi-Detection Microplate Reader (Bio-Tek Instruments, Winoosky, MT, United States). The reaction kinetics were linear throughout the time of measurement. Both intracellular and extracellular enzyme activities were expressed as μmol NADH oxidized/min/dish. The results were expressed as percentage of extracellular LDH versus total (intracellular plus extracellular) LDH. Cell viability was measured by the neutral red staining method, as previously reported ([Riganti et al., 2015b]). The absorbance of untreated cells was considered as 100% viability; the results were expressed as percentage of viable cells versus untreated cells. IC50 was calculated with the CompuSyn software^1.

[2] = system: HMC (human mesothelial cells); test: Cell viability (neutral red), IC50; type: cell-based; details: HMC primary mesothelial cells, CompuSyn
Text: as §1, §2

[3] = system: HMM (human malignant mesothelioma) cells; test: Cell viability (neutral red), IC50; type: cell-based; details: HMM primary malignant mesothelioma cells, CompuSyn
Text: as §1, §2

[4] = system: HT29 cells; test: Cell viability (neutral red), IC50; type: cell-based; details: Homo sapiens, HT-29, HT29 colon cancer cells, CompuSyn
Text: as §1, §2

[5] = system: MCF10A cells; test: Cell viability (neutral red), IC50; type: cell-based; details: Homo sapiens, MCF-10A, MCF10A normal breast epithelial cells, CompuSyn
Text: as §1, §2

[6] = system: MDA-MB-231 cells; test: Cell viability (neutral red), IC50; type: cell-based; details: Homo sapiens, MDA-MB-231 breast cancer cells, CompuSyn
Text: as §1, §2

[7] = system: Primary osteoblasts; test: Cell viability (neutral red), IC50; type: cell-based; details: Homo sapiens, Osteoblast, CompuSyn
Text: as §1, §2

[8] = system: mitochondrial ROS; test: Mitochondrial ROS (MitoSOX Red) in A549 cells; type: cell-based, Human; details: 0.1 μM, 4 h
Protocol: The amount of ROS in mitochondrial extracts was measured fluorimetrically by incubating cell suspension at 37°C for 10 min with 10 μM of MitoSOX Red probe (Invitrogen Life Technologies), as per manufacturer’s instructions. Results were expressed as nmoles/mg mitochondrial proteins, using a calibration curve previously set with serial dilution of H2O2.
[t] Continuedof three experiments with similar results. (D) Confocal analysis of mitochondrial staining with MitoTracker® Green FM. Magnification: 60 × objective (0.52 numerical aperture); 10 × ocular lens. Bar: 10 μM. The micrographs are representative of three experiments with similar results. (E,F) The electron transport was measured spectrophotometrically in duplicates. ATP levels in mitochondrial extracts was measured by a chemiluminescence-based assay, in duplicates. Data are means ± SD (n = 3). For both panels: ^∗p < 0.001 vs. A549 ctrl cells; °p < 0.001 for BEAS-2B cells vs. the corresponding condition in A549 cells. (G,H) ROS amount in mitochondrial extracts and mitochondrial damage were measured fluorimetrically, in duplicates. Data are means ± SD (n = 3). […] There were no statistically significant differences between untreated (ctrl) and compound 1/compound 2-treated BEAS-2B cells for all the parameters analyzed in this figure.

[9] = system: A549 cells; test: Mitochondrial depolarization (JC-1); type: cell-based, Human; details: 0.1 μM, 4 h
Protocol: (§3) Mitochondrial depolarization was measured by staining cells with the fluorescent probe JC-1 (Biotium Inc., Hayward, CA, United States), as described ([Riganti et al., 2015a]). The red fluorescence, index of polarized mitochondria, was detected at 550 nm (λ excitation) and 600 nm (λ emission); the green fluorescence, index of depolarized and damaged mitochondria, was detected at 485 nm (λ excitation) and 535 nm (λ emission). The fluorescence units were used to calculate the percentage of green-fluorescent versus red-fluorescent mitochondria.
(§4) [t] Continuedof three experiments with similar results. (D) Confocal analysis of mitochondrial staining with MitoTracker® Green FM. Magnification: 60 × objective (0.52 numerical aperture); 10 × ocular lens. Bar: 10 μM. The micrographs are representative of three experiments with similar results. (E,F) The electron transport was measured spectrophotometrically in duplicates. ATP levels in mitochondrial extracts was measured by a chemiluminescence-based assay, in duplicates. Data are means ± SD (n = 3). For both panels: ^∗p < 0.001 vs. A549 ctrl cells; °p < 0.001 for BEAS-2B cells vs. the corresponding condition in A549 cells. (G,H) ROS amount in mitochondrial extracts and mitochondrial damage were measured fluorimetrically, in duplicates. Data are means ± SD (n = 3). For both panels: ^∗p < 0.001 vs. A549 ctrl cells; °p < 0.001 for BEAS-2B cells vs. the corresponding condition in A549 cells. There were no statistically significant differences between untreated (ctrl) and compound 1/compound 2-treated BEAS-2B cells for all the parameters analyzed in this figure.

[10] = system: BEAS-2B cells; test: Mitochondrial depolarization (JC-1); type: cell-based, Human; details: 0.1 μM, 4 h
Protocol: as §3, §4

[11] = system: caspase 3; test: Caspase 3 activity in BEAS-2B cell lysates; type: cell-based, Human; details: 0.1 μM, 24 h
Protocol: The activity of caspase 9 and 3 was measured by incubating 20 μg cell lysates with the respective fluorogenic substrates Ac-LEHD-AMC (LEHD-AMC) or DEVD-AMC (DEVD-AMC), as reported ([Pinzón-Daza et al., 2012]). Results were expressed as nmoles AMC/mg protein.
FIGURE 7 Effects of phenol TPP-derivatives on mitochondria-dependent apoptosis. A549 and BEAS-2B cells were incubated 24 h in fresh medium (ctrl) or in medium containing 0.1 μM of 1 or 2. (A,B) The activity of caspase 9 and 3 was measured fluorimetrically, in duplicates. Data are means ± SD (n = 3). For both panels: ^∗p < 0.001 vs. A549 ctrl cells; °p < 0.001 for BEAS-2B cells vs. the corresponding condition in A549 cells. (C,D) Cell cycle distribution, measured in duplicates. Data are means ± SD (n = 3). For both panels: ^∗p < 0.001 vs. A549 ctrl cells: °p < 0.001 for BEAS-2B cells vs. the corresponding condition in A549 cells. (E) Bright field microscope analysis of cells. Magnification: 60 × objective (0.52 numerical aperture); 10 × ocular lens. Bar: 20 μM. The micrographs are representative of three experiments with similar results.

Q: For CC(=O)Oc1ccc(C[P+](c2ccccc2)(c2ccccc2)c2ccccc2)cc1.[Br-] [Compound 1], which IC50 [1] is on record?
A: 18.2 ± 1.29 µM

Q: What about the IC50 [2] of the same compound?
A: 7.37 ± 0.89 µM

Q: And the IC50 [3]?
A: 4.39 ± 0.35 µM

Q: What about the IC50 [4] of the same compound?
A: 4.45 ± 0.78 µM

Q: What about the IC50 [5] of the same compound?
A: 7.52 ± 0.43 µM

Q: And the IC50 [6]?
A: 8.32 ± 1.25 µM

Q: And the IC50 [7]?
A: 6.46 ± 0.83 µM

Q: And the “mitochondrial ROS” value [8]?
A: acutely increased

Q: What about the “percentage of depolarized mitochondria” value [9] of the same compound?
A: acutely increased

Q: What about the mitochondrial depolarization [10] of the same compound?
A: negligible modifications

Q: And the “activity of caspase 3” value [11]?
A: remained similar to untreated cells

Q: Which results are given for O=C(Oc1ccc(C[P+](c2ccccc2)(c2ccccc2)c2ccccc2)cc1C(F)(F)F)c1ccccc1.[Br-] [Compound 2]?
A: IC50 [1]: 7.89 ± 0.36 µM; IC50 [2]: 39.1 ± 4.34 µM; IC50 [3]: 0.82 ± 0.07 µM; IC50 [4]: 3.81 ± 0.47 µM; IC50 [5]: 6.32 ± 0.41 µM; IC50 [6]: 0.34 ± 0.11 µM; IC50 [7]: 3.41 ± 0.73 µM; mitochondrial ROS [8]: acutely increased; percentage of depolarized mitochondria [9]: acutely increased; mitochondrial depolarization [10]: negligible modifications; activity of caspase 3 [11]: remained similar to untreated cells
